In PMC8591608, “DNDI-6148: A Novel Benzoxaborole Preclinical Candidate for the Treatment of Visceral Leishmaniasis” (Journal of Medicinal Chemistry, 2021):

Tested on: CPSF3 (Asn219His)-overexpressing L. donovani promastigotes
Assay: Drug sensitivity, CPSF3 (Asn219His)-overexpressing L. donovani promastigotes
Type: cell-based
Conditions: Leishmania donovani
Description: The clonal L. donovani cell line LdBOB (derived from MHOM/SD/62/1S-CL2D) was grown as promastigotes at 28 °C, as described previously. Bloodstream form T. brucei MiTat 1.2 clone 221a and its derived subline, 2T1, were cultured at 37 °C in the presence of 5% CO2 in HMI9-T medium, as described previously. T. brucei cell lines overexpressing CPSF3 and overexpressing a mutated version of CPSF3 (Asn232His) were generated as part of a previous study and cultured as described.[19]
L. donovaniCPSF3 gene (LdBPK_343210.1) was custom synthesized by GeneArt and ligated into the pIR1SAT vector via BglII restriction sites. Using the Q5 mutagenesis kit (NEB) and the pIR1SAT-LdCPSF3^WT construct as a template, mutations encoding A655C and Asn219His change to CPSF3^WT were introduced. Mutations were introduced using the specific primers 5′-GAGTACACGGCATCCGC-3′ and 5′-[…]-3′ and as per manufacturers’ instructions. Wild-type and mutated pIR1SAT constructs were digested with SwaI and transfected into L. donovani promastigotes, as previously described. Resistant clones were selected with nourseothricin (100 μg/mL), and two clones per transfection were selected for further study.
Drug sensitivity assays with wild-type and transgenic T. brucei and L. donovani cell lines were carried out as previously described.[31],[32]

Compound `Cc1c(C(=O)Nc2ccc3c(c2)B(O)OC3)nnn1-c1ccccn1` [Compound 23, N-(1-Hydroxy-1,3-dihydrobenzo[c][1,2]oxaborol-6-yl)-5-methyl-1-(pyridin-2-yl)-1H-1,2,3-triazole-4-carboxamide] has an EC50 of 1.67 ± 0.051 µM.
